Here are results for six molecules from patent US6965021B2, “Feedback-resistant pyruvate carboxylase gene from corynebacterium” (Archer-Daniels-Midland Company, priority 2000, dated 2005).

Data set [1] relates to pyruvate carboxylase. The data set is described as follows: Controls for the continuous pyruvate carboxylate assay. The conditions noted are these: complete mixture + biotin (complete mixture alone 0.30). The data set is classed as biochemical, Corynebacterium glutamicum. The protocol: For determination of pyruvate carboxylate activity, the assay mixture contained 10 mM pyruvic acid, 14 mM KHCO3, 4 mM MgCl2, 1.75 mM ATP, 50 μmole acetyl-CoA, 0.3 mg bovine serum albumin, 0.055 U citrate synthase and 50 mM sodium phosphate buffer ([pH 7.5] containing 0.1 mg 5,5′-Dithio-bis(2-nitrobenzoic acid) (DTNB)) in a final volume of 1 ml. The reaction was started at 30° C. with the addition of 10 μl of the permeabilized cell suspension, and the formation of DTNB-thiophenolate was followed over time at 412 nm. Relevant standards and controls were carried out in the same manner.
(§1) To account for the intrinsic loss of OAA during the experiment, a continuous assay was carried out by coupling the two-reaction assay to a one-reaction assay in presence of an excess of citrate synthase. The amount of permeabilized cells added in the assay was optimized to obtain a detectable activity, with the lowest possible background absorbency due to the presence of cells.
To confirm that the continuous assay specifically detected pyruvate carboxylase activity, controls were carried out by assaying for activity in absence of each reaction component (Table 1). Using these controls, the detected activity was determined to be a carboxylation reaction requiring pyruvate, Mg and ATP.

For the next data set, the system named is CC(=O)C(=O)O. The data set is described as follows: purified protein, by the assay type. Particulars: other: permeabilized cells, pH 7.5, 30° C.
Data set [2] has as its system Nc1ncnc2c1ncn2[C@@H]1O[C@H](COP(=O)(O)OP(=O)(O)OP(=O)(O)O)[C@@H](O)[C@H]1O. Briefly: purified protein, by the assay type. Particulars: other: permeabilized cells, pH 7.5, 30° C.
Experimental: (§7) To account for the intrinsic loss of OAA during the experiment, a continuous assay was carried out by coupling the two-reaction assay to a one-reaction assay in presence of an excess of citrate synthase. […]
The target in data set [3] is Corynebacterium glutamicum NRRL B-11474 (BF100) pyruvate carboxylase, feedback-resistant variant (M1V, E153D, A182S, A206S, H227R, A455G, D1120E), SEQ ID NO:2 (Corynebacterium glutamicum, UniProt H7C7K2, A182S/A206S/A455G/D1120E/E153D/H227R/M1V). Here is the method: (§2) Pyruvate carboxylate and phosphoenol pyruvate carboxylate assays were performed with permeabilized cells prepared by the following method. Log phase cells were harvested by centrifugation for 10 min at 5000×g at 4° C. and washed with 20 ml of the ice-cold washing buffer (50 mM Tris/HCl [pH 6.3] containing 50 mM NaCl). The cell pellet was resuspended in an ice-cold Hepes buffer (100 mM Hepes [pH 7.5] containing 20% Glycerol) to reach a final concentration of 25 g dry cell weight/liter. Resuspended cells were permeabilized by adding 30 μl of a 10% Hexadecyltrimethyl-ammonium bromide (CTAB) (w/v) solution to 1 ml of cells to give a final concentration of 0.3% (CTAB)(v/v).
The reaction was started at 30° C. with the addition of 10 μl of the permeabilized cell suspension, and the formation of DTNB-thiophenolate was followed over time at 412 nm. Relevant standards and controls were carried out in the same manner.
as §1
(§3) Pyruvate carboxylase activity was determined as a function of various concentrations of its substrates: pyruvate, bicarbonate and ATP (FIG. 3). Based on the data generated, the affinity constants of pyruvate carboxylase for its substrates were determined (Table 2).
To determine the effect of aspartate on the activity of pyruvate carboxylase, aspartate was added at different concentrations in the spectrophotometer cuvette and enzyme activities were measured. As a comparison, the same experiment was carried out with PEPC in ATCC 21253 (FIG. 5).
Pyruvate carboxylase activity was measured in the presence of different concentrations of acetyl-CoA (FIG. 6). […] The effect of acetyl-CoA on citrate synthase itself was studied also.

Data set [4] addresses T1, Corynebacterium glutamicum ATCC 21253 pyruvate carboxylase, wild type, SEQ ID NO:19 (Corynebacterium glutamicum, UniProt H7C7K2).
T1 construct: coupled citrate synthase/DTNB assay
T1 sequence (H7C7K2 1-1140): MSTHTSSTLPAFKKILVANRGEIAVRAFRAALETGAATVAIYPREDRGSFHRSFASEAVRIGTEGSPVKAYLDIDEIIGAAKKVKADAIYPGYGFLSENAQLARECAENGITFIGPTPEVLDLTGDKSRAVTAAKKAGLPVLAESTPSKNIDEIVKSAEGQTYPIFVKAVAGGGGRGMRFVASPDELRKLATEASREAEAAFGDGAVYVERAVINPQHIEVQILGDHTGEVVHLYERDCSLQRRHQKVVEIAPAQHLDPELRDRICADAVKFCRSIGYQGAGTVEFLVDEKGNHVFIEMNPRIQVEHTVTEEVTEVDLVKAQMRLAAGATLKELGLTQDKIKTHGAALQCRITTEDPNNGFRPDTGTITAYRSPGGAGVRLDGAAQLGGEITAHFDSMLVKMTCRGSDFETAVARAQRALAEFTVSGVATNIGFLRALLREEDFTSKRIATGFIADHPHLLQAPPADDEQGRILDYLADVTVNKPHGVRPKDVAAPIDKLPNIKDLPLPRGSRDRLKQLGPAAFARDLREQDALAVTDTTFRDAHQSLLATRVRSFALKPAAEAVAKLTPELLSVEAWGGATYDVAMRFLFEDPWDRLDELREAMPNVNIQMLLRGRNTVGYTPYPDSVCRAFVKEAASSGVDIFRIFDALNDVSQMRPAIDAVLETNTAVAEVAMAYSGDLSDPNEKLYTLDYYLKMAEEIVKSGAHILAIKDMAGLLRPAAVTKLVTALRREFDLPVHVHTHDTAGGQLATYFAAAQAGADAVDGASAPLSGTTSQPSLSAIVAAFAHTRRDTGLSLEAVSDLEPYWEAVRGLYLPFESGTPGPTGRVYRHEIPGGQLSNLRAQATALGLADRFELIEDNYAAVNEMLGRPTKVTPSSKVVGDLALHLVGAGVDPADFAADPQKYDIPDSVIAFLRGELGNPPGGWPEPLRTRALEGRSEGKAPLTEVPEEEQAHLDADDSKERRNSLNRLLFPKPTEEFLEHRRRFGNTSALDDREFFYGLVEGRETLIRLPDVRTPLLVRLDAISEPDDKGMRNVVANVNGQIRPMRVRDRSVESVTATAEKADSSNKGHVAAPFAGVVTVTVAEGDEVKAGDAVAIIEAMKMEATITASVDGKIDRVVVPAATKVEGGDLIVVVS
The data set is described as follows: Continuous pyruvate carboxylase assay (permeabilized cells), ATCC 21253. The class given is biochemical. The protocol:
as §2, with “(CTAB)(v/v). […]” for “(CTAB)(v/v).”
as §3
To determine the effect of aspartate on the activity of pyruvate carboxylase, aspartate was added at different concentrations in the spectrophotometer cuvette and enzyme activities were measured. […]
(§4) Pyruvate carboxylase activity was measured in the presence of different concentrations of acetyl-CoA (FIG. 6). […]

For data set [5], the system named is pyruvate carboxylase from NRRL B-11474. The data set is described as follows: Effect of aspartate, ATP and acetyl-CoA on pyruvate carboxylase activity, strain NRRL B-11474. The class given is biochemical, Corynebacterium glutamicum. The protocol: as §2, with “(CTAB)(v/v). […]” for “(CTAB)(v/v).”
(§5) Pyruvate carboxylase activity was determined as a function of various concentrations of its substrates: pyruvate, bicarbonate and ATP (FIG. 3). Based on the data generated, the affinity constants of pyruvate carboxylase for its substrates were determined (Table 2). […]
(§6) Aspartate inhibits phosphoenol pyruvate carboxylase (PEPC) activity. To determine the effect of aspartate on the activity of pyruvate carboxylase, aspartate was added at different concentrations in the spectrophotometer cuvette and enzyme activities were measured. […]
as §4

In data set [6] the test system is pyruvate carboxylase from ATCC 21253. Briefly: Effect of aspartate, ATP and acetyl-CoA on pyruvate carboxylase activity, strain ATCC 21253. The class given is biochemical, Corynebacterium glutamicum. The protocol: as §2, with “(CTAB)(v/v). […]” for “(CTAB)(v/v).”
as §5, §6, §4

A further data set deals with citrate synthase. Briefly: Effect of acetyl-CoA on citrate synthase. The data set is classed as biochemical. The conditions noted are these: acetyl-CoA on citrate synthase itself. Here is the method:
Pyruvate carboxylase activity was measured in the presence of different concentrations of acetyl-CoA (FIG. 6). Pyruvate carboxylase activity in both strains increased with increasing acetyl-CoA concentrations. The effect of acetyl-CoA on citrate synthase itself was studied also. […] Therefore, the increasing activity of pyruvate carboxylase with increasing acetyl-CoA concentration is the result of acetyl-CoA activating pyruvate carboxylase.

Data set [7] concerns pyruvate carboxylase. The data set is described as follows: Continuous pyruvate carboxylase assay with permeabilized cells: affinity constants for substrates and basal activity. The conditions noted are these: NRRL B-11474 versus ATCC 21253. The class given is biochemical, Corynebacterium glutamicum.
Setting [8] is: different concentrations of acetyl-CoA.
The mark [9] stands for this setting: ATP above a concentration of 2 mM.

Experimental for CC(=O)C(=O)O: as §7

With `O=C(O)CCCC[C@@H]1SC[C@@H]2NC(=O)N[C@@H]21` [biotin], the “Detected Activity” value with pyruvate carboxylase [1] stood at 0.35 Abs/min.mg DCW.
In general, Km refers to the substrate concentration at which the rate is half of its maximum. Consider “Corynebacterium glutamicum NRRL B-11474 (BF100) pyruvate carboxylase, feedback-resistant variant (M1V, E153D, A182S, A206S, H227R, A455G, D1120E), SEQ ID NO:2 (Corynebacterium glutamicum ATCC 13032; A182S/A206S/A455G/D1120E/E153D/H227R/M1V)”, for which the Km with CC(=O)C(=O)O turned out to be 1300 ± 300 µM; in data set [2], 400 ± 100 µM.
Regarding `O=C(O)O` [HCO3−, bicarbonate], the Km in [3] (read-out: KM(HCO3−), permeabilized cells, pH 7.5, 30° C.) came to 14400 ± 4000 µM; in data set [4] (permeabilized cells, pH 7.5, 30° C., read-out: KM(HCO3−)) it was 2900 ± 800 µM.
In the case of `CC(=O)SCCNC(=O)CCNC(=O)[C@H](O)C(C)(C)COP(=O)(O)OP(=O)(O)OC[C@H]1O[C@@H](n2cnc3c(N)ncnc32)[C@H](O)[C@@H]1OP(=O)(O)O` [acetyl-CoA], the “pyruvate carboxylase activity with increasing acetyl-CoA concentrations” value in data set [5] (setting [8]) and in data set [6] (setting [8]) was “increased” each time. The Km in the data set on citrate synthase was 10 µM.
As to `Nc1ncnc2c1ncn2[C@@H]1O[C@H](COP(=O)(O)OP(=O)(O)OP(=O)(O)O)[C@@H](O)[C@H]1O` [ATP, adenosine triphosphate], the “ATP concentration above which activity is inhibited” value in data set [5] and in data set [6] was over 2 mM each time. For the same molecule, the “inhibition of pyruvate carboxylase activity by ATP” value in data set [3] (setting [9]) and in [4] (setting [9]) was “inhibited” throughout.

B1: Pyc: feedback-resistant pyruvate carboxylase (SEQ ID NO:2) from Corynebacterium glutamicum NRRL B-11474, also known as BF100 (protein)
chain: MTAITLGGLLLKGIITLVSTHTSSTLPAFKKILVANRGEIAVRAFRAALETGAATVAIYPREDRGSFHRSFASEAVRIGTEGSPVKAYLDIDEIIGAAKKVKADAIYPGYGFLSENAQLARECAENGITFIGPTPEVLDLTGDKSRAVTAAKKAGLPVLAESTPSKNIDDIVKSAEGQTYPIFVKAVAGGGGRGMRFVSSPDELRKLATEASREAEAAFGDGSVYVERAVINPQHIEVQILGDRTGEVVHLYERDCSLQRRHQKVVEIAPAQHLDPELRDRICADAVKFCRSIGYQGAGTVEFLVDEKGNHVFIEMNPRIQVEHTVTEEVTEVDLVKAQMRLAAGATLKELGLTQDKIKTHGAALQCRITTEDPNNGFRPDTGTITAYRSPGGAGVRLDGAAQLGGEITAHFDSMLVKMTCRGSDFETAVARAQRALAEFTVSGVATNIGFLRALLREEDFTSKRIATGFIGDHPHLLQAPPADDEQGRILDYLADVTVNKPHGVRPKDVAAPIDKLPNIKDLPLPRGSRDRLKQLGPAAFARDLREQDALAVTDTTFRDAHQSLLATRVRSFALKPAAEAVAKLTPELLSVEAWGGATYDVAMRFLFEDPWDRLDELREAMPNVNIQMLLRGRNTVGYTPYPDSVCRAFVKEAASSGVDIFRIFDALNDVSQMRPAIDAVLETNTAVAEVAMAYSGDLSDPNEKLYTLDYYLKMAEEIVKSGAHILAIKDMAGLLRPAAVTKLVTALRREFDLPVHVHTHDTAGGQLATYFAAAQAGADAVDGASAPLSGTTSQPSLSAIVAAFAHTRRDTGLSLEAVSDLEPYWEAVRGLYLPFESGTPGPTGRVYRHEIPGGQLSNLRAQATALGLADRFELIEDNYAAVNEMLGRPTKVTPSSKVVGDLALHLVGAGVDPADFAADPQKYDIPDSVIAFLRGELGNPPGGWPEPLRTRALEGRSEGKAPLTEVPEEEQAHLDADDSKERRNSLNRLLFPKPTEEFLEHRRRFGNTSALDDREFFYGLVEGRETLIRLPDVRTPLLVRLDAISEPDDKGMRNVVANVNGQIRPMRVRDRSVESVTATAEKADSSNKGHVAAPFAGVVTVTVAEGDEVKAGDAVAIIEAMKMEATITASVDGKIERVVVPAATKVEGGDLIVVVS
For B1, the “basal pyruvate carboxylase activity relative to ATCC 21253” value with pyruvate carboxylase [7] is “about 5 times”.
